Experimental data as given in patent publication US7410975B2, “Small molecule toll-like receptor (TLR) antagonists” (Coley Pharmaceutical Group, Inc., priority 2003, dated 2008).

Biological target: T1, human TLR9 (hTLR9) (Homo sapiens, UniProt Q9NR96)
T1 construct: expressed in transfected cells
T1 sequence (Q9NR96 26-1032): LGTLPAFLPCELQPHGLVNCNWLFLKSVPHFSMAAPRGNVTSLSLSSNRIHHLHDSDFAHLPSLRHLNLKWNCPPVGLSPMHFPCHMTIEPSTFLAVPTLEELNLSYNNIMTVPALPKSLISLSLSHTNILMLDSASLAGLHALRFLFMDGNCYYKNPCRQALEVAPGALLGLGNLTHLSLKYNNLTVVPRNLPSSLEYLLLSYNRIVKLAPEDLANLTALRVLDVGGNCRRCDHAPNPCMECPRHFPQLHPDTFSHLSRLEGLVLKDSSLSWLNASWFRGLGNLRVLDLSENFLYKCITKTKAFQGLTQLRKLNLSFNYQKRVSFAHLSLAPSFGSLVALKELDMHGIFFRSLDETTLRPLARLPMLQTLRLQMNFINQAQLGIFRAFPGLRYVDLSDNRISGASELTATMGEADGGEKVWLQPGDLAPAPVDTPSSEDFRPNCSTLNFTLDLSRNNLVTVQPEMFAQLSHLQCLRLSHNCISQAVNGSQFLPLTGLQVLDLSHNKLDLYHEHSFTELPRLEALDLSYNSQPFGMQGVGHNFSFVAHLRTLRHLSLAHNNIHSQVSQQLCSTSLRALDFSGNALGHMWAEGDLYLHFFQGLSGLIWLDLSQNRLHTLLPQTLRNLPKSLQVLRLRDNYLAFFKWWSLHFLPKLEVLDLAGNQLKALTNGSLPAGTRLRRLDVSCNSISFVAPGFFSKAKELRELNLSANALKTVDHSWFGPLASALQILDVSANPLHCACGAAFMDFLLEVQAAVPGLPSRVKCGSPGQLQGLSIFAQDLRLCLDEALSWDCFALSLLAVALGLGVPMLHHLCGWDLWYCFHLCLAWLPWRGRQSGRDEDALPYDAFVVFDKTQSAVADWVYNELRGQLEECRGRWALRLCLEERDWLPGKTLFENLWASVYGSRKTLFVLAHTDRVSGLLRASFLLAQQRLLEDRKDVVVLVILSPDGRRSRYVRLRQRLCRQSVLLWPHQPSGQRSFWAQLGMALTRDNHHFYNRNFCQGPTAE
Assay: Antagonist screen, hTLR9-NFκB-293 cells, 6× NF-κB-luciferase reporter, with EC50 of CpG ODN 2006
Assay type: cell-based
Settings: for hTLR9 (inhibitory effect, antagonist score): compound at 0.5, 5, 50 μg/ml, EC50 concentration of CpG ODN 2006, 16 h, NF-κB-luciferase
Experimental: Candidate small molecules for initial screening were obtained from a commercially available library of 880 off-patent small molecules selected for structural diversity and proven bioavailability in humans (Prestwick Chemical Library). […] Results were measured as fold induction over baseline luciferase activity measured in the absence of ODN 2006 and compared to fold induction over baseline in the presence of the EC50 concentration of ODN 2006 alone. […] Additional screening was performed in like manner using additional small molecules selected from another library or specifically prepared for this purpose.
The method is described in greater detail as follows. The cells for each individual cell clone (hTLR3-NFκB-293, hTLR7-NFκB-293, hTLR8-NFκB-293 and hTLR9-NFκB-293) were counted and seeded one day before the stimulation at 1.5×10^4 cells per well in 96-well cell culture plates. To become adherent the cells were incubated after seeding overnight at 37° C. in 5% CO2 humidified air.
The screen for each compound was performed at the same time for all of the receptors TLR3, TLR7, TLR8 and TLR9. Up to fifteen test compounds, each assayed in duplicate at each of three different final concentrations (0.5 μg/ml, 5 μg/ml, and 50 μg/ml), were used for 16 h cell stimulation on a single multiwell culture plate. A 4× final concentration master plate was created to prepare the different test compounds before they were added to the cells.
Controls were added as duplicates individually for each cell clone on the cell culture plate. Positive controls were used as follows (final concentrations): 50 μg/ml poly(I:C) for hTLR3-NFκB-293; 8 μM resiquimod (R848) for hTLR7-NFκB-293; 30 μM R848 for hTLR8-NFκB-293; and 2.5 μM CpG-ODN 2006 for hTLR9-NFκB-293. Media alone was used as negative control. After addition of controls and small molecules, the cell clones were additionally stimulated with the EC50 concentration of the appropriate receptor-specific ligand.
The mean value of wells H2 and H5 (each with cells and EC50 concentration of the appropriate receptor-specific ligand) divided by the mean of wells H3 and H6 (each with cells alone) yielded the baseline response (i.e., fold induction of luciferase activity) to EC50 concentration of the appropriate receptor-specific ligand.
After 16 h stimulation the supernatant was removed and the cells treated with lysis buffer and stored at −80° C. before measuring.
For each screen result a graphical documentation was performed.
The baseline result (measured with addition of the EC50 concentration of the receptor-specific ligand) for each cell culture plate was measured as described above. Antagonistic effects were measured by down regulation compared to the baseline. Antagonists were scored as follows: • 13: compounds for which there was clear down regulation at 0.5 μg/ml, 5 μg/ml, and 50 μg/ml; • 12: compounds for which there was clear down regulation at 5 μg/ml and 50 μg/ml; • 11: compounds for which there was clear down regulation only at 50 μg/ml; • —: compounds for which there was no clear down regulation even at 50 μg/ml. Agonists

For `CC1NCCc2c1[nH]c1ccccc21.Cl` (racemic) [compound 619, Eleagnine hydrochloride (R,S)], the “hTLR9 (inhibitory effect, antagonist score)” value was 12 (compounds for which there was clear down regulation at 5 μg/ml and 50 μg/ml).

For `O=C1c2c(O)cccc2Cc2cccc(O)c21` [compound 43, Anthralin], the “hTLR9 (inhibitory effect, antagonist score)” value was 13 (compounds for which there was clear down regulation at 0.5 μg/ml, 5 μg/ml, and 50 μg/ml).

For `CN(C)CCCN1c2ccccc2Sc2ccc(C(F)(F)F)cc21.Cl` [compound 53, Triflupromazinehydrochloride], the “hTLR9 (inhibitory effect, antagonist score)” value was 13 (compounds for which there was clear down regulation at 0.5 μg/ml, 5 μg/ml, and 50 μg/ml).

`CN(C)CCCN1c2ccccc2Sc2ccc(Cl)cc21.Cl` [compound 64, Chlorpromazinehydrochloride] was tested, and the “hTLR9 (inhibitory effect, antagonist score)” value was 12 (compounds for which there was clear down regulation at 5 μg/ml and 50 μg/ml).

For `CN(C)CCC=C1c2ccccc2CCc2ccccc21.Cl` [compound 74, Amitryptilinehydrochloride], the “hTLR9 (inhibitory effect, antagonist score)” value was 12 (compounds for which there was clear down regulation at 5 μg/ml and 50 μg/ml).

For `OC(c1ccccc1)(c1ccccc1)C1CCNCC1` [compound 93, Azacyclonol], the “hTLR9 (inhibitory effect, antagonist score)” value was 11 (compounds for which there was clear down regulation only at 50 μg/ml).

With `CN1Cc2c(N)cccc2C(c2ccccc2)C1.O=C(O)/C=C\C(=O)O` (centres unmarked) [compound 108, Nomifensine maleate] the “hTLR9 (inhibitory effect, antagonist score)” value was 11 (compounds for which there was clear down regulation only at 50 μg/ml).

With `C[C@]12N[C@H](Cc3ccccc31)c1ccccc12.O=C(O)/C=C\C(=O)O` [compound 109, Dizocilpine maleate] the “hTLR9 (inhibitory effect, antagonist score)” value was 13 (compounds for which there was clear down regulation at 0.5 μg/ml, 5 μg/ml, and 50 μg/ml).

For `OCCN1CCN(CCCN2c3ccccc3Sc3ccc(Cl)cc32)CC1` [compound 125, Perphenazine], the “hTLR9 (inhibitory effect, antagonist score)” value was 11 (compounds for which there was clear down regulation only at 50 μg/ml).

For `CN1CCN(CCCN2c3ccccc3Sc3ccc(S(=O)(=O)N(C)C)cc32)CC1.CS(=O)(=O)O.CS(=O)(=O)O` [compound 149, Thioproperasinedimesylate], the “hTLR9 (inhibitory effect, antagonist score)” value was 13 (compounds for which there was clear down regulation at 0.5 μg/ml, 5 μg/ml, and 50 μg/ml).

With `Clc1ccccc1C(c1ccccc1)(c1ccccc1)n1ccnc1` [compound 267, Clotrimazole] the “hTLR9 (inhibitory effect, antagonist score)” value was “— (compounds for which there was no clear down regulation even at 50 μg/ml)”.

In the case of `CC(NCCC(c1ccccc1)c1ccccc1)c1ccccc1.Cl` (centres unmarked) [compound 270, Fendiline hydrochloride], the “hTLR9 (inhibitory effect, antagonist score)” value was “— (compounds for which there was no clear down regulation even at 50 μg/ml)”.

`CN1CCC(=C2c3ccccc3Sc3ccccc32)CC1.O=C(O)/C=C\C(=O)O` [compound 294, Pimethixene maleate] was tested, and the “hTLR9 (inhibitory effect, antagonist score)” value was 11 (compounds for which there was clear down regulation only at 50 μg/ml).

In the case of `O=c1[nH]c2ccccc2n1C1CCN(CCCC(c2ccc(F)cc2)c2ccc(F)cc2)CC1` [compound 308, Pimozide], the “hTLR9 (inhibitory effect, antagonist score)” value was 12 (compounds for which there was clear down regulation at 5 μg/ml and 50 μg/ml).

For `Cl.Cl.OCCN1CCN(CC/C=C2/c3ccccc3Sc3ccc(C(F)(F)F)cc32)CC1` [compound 340, Flupentixoldihydrochloride cis-(Z)], the “hTLR9 (inhibitory effect, antagonist score)” value was 11 (compounds for which there was clear down regulation only at 50 μg/ml).

In the case of `CNCCCN1c2ccccc2CCc2ccccc21.Cl` [compound 343, Desipraminehydrochloride], the “hTLR9 (inhibitory effect, antagonist score)” value was 12 (compounds for which there was clear down regulation at 5 μg/ml and 50 μg/ml).

`CN(C)CC/C=C1/c2ccccc2Sc2ccc(Cl)cc21.Cl` [compound 348, Chlorprothixenehydrochloride] was tested, and the “hTLR9 (inhibitory effect, antagonist score)” value was 12 (compounds for which there was clear down regulation at 5 μg/ml and 50 μg/ml).

`Cc1cccc(C)c1NC(=O)CN1CCN(CCCC(c2ccc(F)cc2)c2ccc(F)cc2)CC1` [compound 381, Lidoflazine] was tested, and the “hTLR9 (inhibitory effect, antagonist score)” value was 11 (compounds for which there was clear down regulation only at 50 μg/ml).

For `Cl.Cl.Fc1ccc(C(OCCN2CCN(CCCc3ccccc3)CC2)c2ccc(F)cc2)cc1` [compound 386, GBR 12909hydrochloride], the “hTLR9 (inhibitory effect, antagonist score)” value was “— (compounds for which there was no clear down regulation even at 50 μg/ml)”.

With `Nc1cccc2c1C(=O)c1cccc(N)c1C2=O` [compound 413, Anthraquinone,1,5-diamino] the “hTLR9 (inhibitory effect, antagonist score)” value was 13 (compounds for which there was clear down regulation at 0.5 μg/ml, 5 μg/ml, and 50 μg/ml).

With `CN1CCC2C(C1)c1ccccc1N2Cc1ccccc1` (centres unmarked) [compound 455, Mebhydroline 1,5 naphtalenedisulfonate] the “hTLR9 (inhibitory effect, antagonist score)” value was 12 (compounds for which there was clear down regulation at 5 μg/ml and 50 μg/ml).

In the case of `Cc1cccc(CN2CCN(C(c3ccccc3)c3ccc(Cl)cc3)CC2)c1.Cl.Cl` (centres unmarked) [compound 457, Meclozinedihydrochioride], the “hTLR9 (inhibitory effect, antagonist score)” value was 11 (compounds for which there was clear down regulation only at 50 μg/ml).

`c1ccc2c(c1)[nH]c1cnccc12` [compound 470, norharman] was tested, and the “inhibition of TLR9 signaling in response to CpG ODN 2006 (FIG. 1)” value (FIG. 1, graph) was “concentration-dependent inhibition” and the “hTLR9 (inhibitory effect, antagonist score)” value was 11 (compounds for which there was clear down regulation only at 50 μg/ml).

For `CN(C)CC/C=C1/c2ccccc2CSc2ccccc21.Cl` [compound 488, Dosulepin hydrochloride], the “hTLR9 (inhibitory effect, antagonist score)” value was 12 (compounds for which there was clear down regulation at 5 μg/ml and 50 μg/ml).

In the case of `CN1CCN(C(c2ccccc2)c2ccccc2)CC1.Cl` [compound 510, Cyclizine hydrochloride], the “hTLR9 (inhibitory effect, antagonist score)” value was 11 (compounds for which there was clear down regulation only at 50 μg/ml).

In the case of `CN1CCCCC1CCN1c2ccccc2Sc2ccc([S+](C)[O-])cc21.O=S(=O)(O)c1ccccc1` (centres unmarked) [compound 529, Mesoridazine besylate], the “hTLR9 (inhibitory effect, antagonist score)” value was 11 (compounds for which there was clear down regulation only at 50 μg/ml).

For `CCOC(=O)Oc1c(OC)cc(C(=O)O[C@@H]2C[C@@H]3CN4CCc5c([nH]c6cc(OC)ccc56)[C@H]4C[C@@H]3[C@H](C(=O)OC)[C@H]2OC)cc1OC` [compound 564, Syrosingopine], the “hTLR9 (inhibitory effect, antagonist score)” value was 13 (compounds for which there was clear down regulation at 0.5 μg/ml, 5 μg/ml, and 50 μg/ml).

With `COC(=O)[C@H]1[C@H]2C[C@@H]3c4[nH]c5cc(OC)ccc5c4CCN3C[C@H]2C[C@@H](OC(=O)/C=C/c2cc(OC)c(OC)c(OC)c2)[C@@H]1OC` [compound 568, Rescinnamin] the “hTLR9 (inhibitory effect, antagonist score)” value was 12 (compounds for which there was clear down regulation at 5 μg/ml and 50 μg/ml).
